The subject of data set [1] is RNA polymerase II Serine 5 phosphorylation in A549 cells overexpressing CDK7 mutant (C312S). Nature of the data set: Imaging-based cellular RNA PolII Ser5 phosphorylation assay in A549 cells overexpressing CDK7-mutant (C312S). The settings on record: for IC50: Homo sapiens, A549, A549 cells overexpressing CDK7 mutant (C312S), read-out: CDK7_ A549 mutant hCDK7(pIC50) (converted); for CDK7_ A549 mutant hCDK7(pIC50): A549 cells overexpressing CDK7 mutant (C312S). It counts as cell-based, human. In outline: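 A stably transduced A549 pool overexpressing CDK7 C312S, a mutant that blocks covalent binding at Cys312, while retaining endogenous wild-type CDK7 was used. Ser5 phosphorylation was measured by imaging, and IC50 values were derived.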

Data set [2] deals with CDK7/cyclinH/MAT1 trimeric complex (Homo sapiens (Human), UniProt P50613). The data set can be described thus: In vitro CDK7 assay, potency of irreversible covalent inhibitors (kinact/KI).
Data set [3] has as its system RNA polymerase II Serine 5 phosphorylation (CDK7) in A549 cells.
Source text: To evaluate inhibition of CDK7 kinase activity, a 384-well automated imaging assay was used. This assay detects Serine 5 phosphorylation on a unique heptapeptide sequence in the C-terminal domain of Rpb1 subunit of RNA polymerase II, the downstream substrate of CDK7. This heptapeptide sequence is repeated up to 52 times in the CTD of Rpb1.
RNA Polymerase II Serine 5 phosphorylation was detected using a specific rabbit Phospho-Rpb1 CTD (Ser5) antibody. A549 adenocarcinoma human alveolar basal epithelial cells were seeded in 20 μl medium (DMEM supplemented with 1% Fetal Bovine Serum (heat inactivated 30′ 56° C.), 2 mM L-glutamine, 50 U/ml penicillin 50 μg/ml streptomycin, 1 mM sodium pyruvate and 50 mM hepes) at 1000 cells/well and cultured in poly-D-lysine coated μclear 384 black plates for 20 hours at 37° C. and 5% CO2.
After incubation cells were challenged with compound for 3 hours at 37° C. and 5% CO2. DMSO was used as high control and as low control 10 μM of the following reference compound was used:
40 nl of test compounds and controls were spotted in cell plates using Echo Liquid Handler (Echo 550, Labcyte). Incubation was followed by 20 minutes fixation with 20 μl 10% formaldehyde at room temperature. Medium/formaldehyde solution was removed, plates were washed 3 times with 30 μl D-PBS (w/o Ca^2+ and Ma^2+) and permeabilization was done by adding 20 μl ice cold methanol for 20 minutes. Cells were washed again 3 times with 30 μl D-PBS and 20 μl blocking buffer (25 ml fetal bovine serum in 500 ml D-PBS) was added for 1 hour.
After removing blocking buffer 20 μl 1/1000 primary antibody rabbit Phospho-Rpb1 CTD (Ser5) antibody was added which binds to the phosphorylated Serine5 of the heptapeptide sequences in the CTD of Rpb1. […] Last, plates were washed 2 times with 30 μl D-PBS and wells were filled with 40 μL D-PBS, plates were sealed (Thermowell sealing tape) and stored at 4° C. until reading. Plates were read with Opera Phenix (Perkin Elmer) with 10× air objective. Data were calculated and analyzed in Phaedra.
IC50 values were calculated using the following formula
Average value of all HC's and all LC's are used for normalizations.
% Effect=100−(sample-LC)/(HC-LC)×100
% Control=(sample/HC)×100
From this an IC50 value can be obtained. An estimate of the slope of the plot in terms of the Hill coefficient is also obtained.
The mark [4] stands for this setting: CDK7 (20 nM enz.) (KI, μM), 20 nM enz.
Setting [5] is: read-out: CDK7 (20 nM enz.) (kinact, s^−1), 20 nM enz.
[6] abbreviates: read-out: CDK7 (20 nM enz.) (kinact/ KI, M^−1*s^−1), 20 nM enz.
[7] abbreviates: read-out: CDK7 (20 nM enz.) (kobs/[I], M^−1*s^−1), 20 nM enz.

Several values for one entry are separate records, joined by “and”; a condition that tells them apart may be missing. Equal entries are not always repeated. Where two headings read alike, the source gives them in different places. A value given as a limit tells only on which side of the number the result lay.

Chain of CDK7/cyclinH/MAT1 trimeric complex (P50613 whole entry): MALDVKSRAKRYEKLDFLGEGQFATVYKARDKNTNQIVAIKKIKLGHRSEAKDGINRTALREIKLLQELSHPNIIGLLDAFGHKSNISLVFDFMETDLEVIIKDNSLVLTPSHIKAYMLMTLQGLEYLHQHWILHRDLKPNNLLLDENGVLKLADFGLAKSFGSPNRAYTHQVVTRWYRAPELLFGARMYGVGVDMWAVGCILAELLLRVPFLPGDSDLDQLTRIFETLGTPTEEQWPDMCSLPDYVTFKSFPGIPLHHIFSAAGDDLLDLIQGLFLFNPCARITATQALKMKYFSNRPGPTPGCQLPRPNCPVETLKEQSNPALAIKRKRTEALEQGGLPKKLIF
Chain of CDK7/cyclinH/MAT1 trimeric complex (P51946 whole entry partner): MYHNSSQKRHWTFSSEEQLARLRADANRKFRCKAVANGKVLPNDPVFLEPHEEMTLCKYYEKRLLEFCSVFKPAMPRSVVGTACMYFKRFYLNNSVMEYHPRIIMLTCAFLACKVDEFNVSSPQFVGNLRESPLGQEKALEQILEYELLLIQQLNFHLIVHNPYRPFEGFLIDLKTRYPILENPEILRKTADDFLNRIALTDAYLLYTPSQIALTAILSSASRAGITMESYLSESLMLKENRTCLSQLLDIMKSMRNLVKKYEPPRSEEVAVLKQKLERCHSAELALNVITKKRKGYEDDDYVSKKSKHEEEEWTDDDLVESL
Chain of CDK7/cyclinH/MAT1 trimeric complex (P51948 whole entry partner): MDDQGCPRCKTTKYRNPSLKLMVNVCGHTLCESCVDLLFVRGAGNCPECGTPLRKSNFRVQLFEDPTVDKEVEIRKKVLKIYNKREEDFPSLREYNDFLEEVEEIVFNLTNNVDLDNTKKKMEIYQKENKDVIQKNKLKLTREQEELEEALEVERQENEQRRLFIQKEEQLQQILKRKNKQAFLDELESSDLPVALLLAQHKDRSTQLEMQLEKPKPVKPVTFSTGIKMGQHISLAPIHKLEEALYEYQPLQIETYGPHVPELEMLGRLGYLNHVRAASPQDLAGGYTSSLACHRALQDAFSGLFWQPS

`C=CC(=O)N1CCC(N2CC(c3cc4c(c(C5CC5)c3)O[C@@H](C)c3c(ncnc3N3CCS(=O)(=O)CC3)N4)C2)C1` (mixture of isomers) [compound 97]: the melting point was 220 °C. In data set [1], the IC50 was above 10 µM. In data set [2] (setting [4]), this compound yielded a Ki of 0.0068 µM. In addition, in data set [2] (setting [5]), the inactivation rate constant (kinact) worked out at 2.76e-05 s⁻¹. For the same compound, the kinact/KI in data set [2] (setting [6]) is 4030 M⁻¹ s⁻¹. This compound also gave an IC50 in data set [3] of 0.234 µM.
On to `CC#CC(=O)N1CCC(C)(N2CC(c3cc(C)c4c(c3)Nc3ncnc(N5CCS(=O)(=O)CC5)c3[C@@H](C)O4)C2)C1` (mixture of isomers) [compound 147], for which the melting point was determined as 244 °C. Moreover, in data set [1], the IC50 is above 10 µM. This compound gave an IC50 in data set [3] of 0.309 µM.
On the same counts, the results for `CC#CC(=O)N1CCC(N2CC(c3cc(C)c4c(c3)Nc3ncnc(N5CCS(=O)(=O)CC5)c3C(C)O4)C2)CC1` (racemic) [compound 123] are 218 °C, 8.32 µM and 0.0501 µM.
Compound `C=CC(=O)N1CC(N2CC[C@H](c3ccc4c(c3)Nc3ncnc(N5CCOCC5)c3CO4)[C@H](C)C2)C1` (single isomer, unassigned) [compound 37] gave a melting point of 217 °C. Besides, the IC50 in data set [1] is above 10 µM. Moreover, the Ki in data set [2] (CDK7 (KI(μM)), Table B) was 0.164 µM and 0.152 µM. In data set [2] (Table B), the “CDK7 (kinact, s^−1)” value stood at 7.29e-05 s⁻¹ and the “CDK7 (kinact/KI, M^−1*s^−1)” value came to 478.485 M⁻¹ s⁻¹. Moreover, the kinact in data set [2] (read-out: CDK7 (kinact, s^−1), Table B) is 0.000137 s⁻¹. In addition, in data set [2] (read-out: CDK7 (kinact/KI, M^−1*s^−1), Table B), the kinact/KI worked out at 832 M⁻¹ s⁻¹. Further, in data set [3], the IC50 was 0.912 µM and 0.676 µM.
`C=CC(=O)N1CC(N2CCC(c3cc(F)c4c(c3)Nc3ncnc(N5CCOCC5)c3[C@@H](C)O4)CC2)C1` (single isomer, unassigned) [compound 46] showed a melting point of 175 °C. Moreover, the IC50 in data set [1] was above 10 µM. In data set [2] (setting [4]), the Ki stood at 0.094 µM. Besides, the kinact in data set [2] (setting [5]) came out at 5.18e-05 s⁻¹. For the same compound, the kinact/KI in data set [2] (setting [6]) is 667 M⁻¹ s⁻¹. In data set [3], the IC50 was 0.209 µM.
For the compound `C=CC(=O)N1CC(N2CCC(c3cc(F)c4c(c3)Nc3ncnc(N5CCOCC5)c3[C@H](C)O4)CC2)C1` (single isomer, unassigned) [compound 49], the melting point amounted to 180 °C. In addition, the IC50 in data set [1] was above 10 µM. The Ki in data set [2] (setting [4]) came to 0.118 µM. Also, the kinact in data set [2] (setting [5]) worked out at 5.65e-05 s⁻¹. Further, the kinact/KI in data set [2] (setting [6]) was determined as 478 M⁻¹ s⁻¹. In addition, in data set [3], the IC50 is 0.178 µM.
Regarding `C=CC(=O)N1CC(N2CCC(c3cc(F)c4c(c3)Nc3ncnc(-c5cnn(C)c5)c3[C@@H](C)O4)CC2)C1` (single isomer, unassigned) [compound 52], the melting point was 245 °C. The IC50 in data set [1] is above 10 µM. This compound showed a Ki in data set [2] (setting [4]) of 0.0825 µM. Also, the kinact in data set [2] (setting [5]) turned out to be 5.9e-05 s⁻¹. Moreover, the kinact/KI in data set [2] (setting [6]) was 714 M⁻¹ s⁻¹. This compound also showed an IC50 in data set [3] of 0.123 µM.
Turning to `C=CC(=O)N1CC(N2CCC(c3cc(F)c4c(c3)Nc3ncnc(-c5cnn(C)c5)c3[C@H](C)O4)CC2)C1` (single isomer, unassigned) [compound 53], the melting point was 260 °C. The IC50 in data set [1] was above 10 µM. Besides, the kinact/KI in data set [2] (setting [7]) came to 3.8 M⁻¹ s⁻¹. In addition, the IC50 in data set [3] was above 10 µM.
As for `C=CC(=O)N1CC(N2CCC(c3cc4c(cn3)O[C@H](C)c3c(ncnc3N3CCOCC3)N4)CC2)C1` (single isomer, unassigned) [compound 60], the melting point came to 250 °C. In addition, the “CDK7_ A549 mutant hCDK7(pIC50)” value in data set [1] is given as below 5. Also, in data set [2] (20 nM enz.), the “CDK7 (20 nM enz.) (kinact, s^−1)” value was determined as 5.21e-05 s⁻¹ and the “CDK7 (20 nM enz.) (kinact/ KI, M^−1*s^−1)” value worked out at 184.255 M⁻¹ s⁻¹. This compound also displayed a Ki in data set [2] (setting [4]) of 0.283 µM. Moreover, in data set [3], the IC50 is 0.257 µM.
The compound `C=CC(=O)N1CC(N2CCC(c3cc4c(cn3)O[C@@H](C)c3c(ncnc3N3CCOCC3)N4)CC2)C1` (single isomer, unassigned) [compound 62] came in with a melting point of 253 °C. Besides, in data set [1], the “CDK7_ A549 mutant hCDK7(pIC50)” value is reported as below 5.4 and the IC50 was above 3.98 µM. In addition, the “CDK7 (20 nM enz.) (kinact, s^−1)” value in data set [2] (20 nM enz.) amounted to 4.79e-05 s⁻¹. The Ki in data set [2] (setting [4]) was 0.504 µM and 2.05 µM. Also, in data set [2] (setting [5]), the kinact amounted to 5.74e-05 s⁻¹.
Take `C=CC(=O)N1CC(N2CCC(c3ccc4c(c3)Nc3ncnc(N5CCOCC5)c3[C@H](CC)O4)CC2)C1` (single isomer, unassigned) [compound 75]: the melting point came out at 123 °C. Also, the IC50 in data set [1] is above 10 µM. Further, the Ki in data set [2] (setting [4]) worked out at 0.265 µM. For the same compound, the kinact in data set [2] (setting [5]) was found to be 3.84e-05 s⁻¹. In addition, the kinact/KI in data set [2] (setting [6]) was determined as 145 M⁻¹ s⁻¹. The IC50 in data set [3] is 0.646 µM.
Compound `C=CC(=O)N1CC(N2CCC(c3ccc4c(c3)Nc3ncnc(N5CCOCC5)c3[C@@H](CC)O4)CC2)C1` (single isomer, unassigned) [compound 76] gave a melting point of 124 °C. In data set [1], the IC50 was above 10 µM. This compound yielded a Ki in data set [2] (setting [4]) of 0.457 µM. For the same compound, the kinact in data set [2] (setting [5]) came out at 3.9e-05 s⁻¹. Moreover, the kinact/KI in data set [2] (setting [6]) turned out to be 85.3 M⁻¹ s⁻¹. The same compound showed an IC50 in data set [3] of 1.66 µM.
Turning to `C=CC(=O)N1CC(N2CCC(c3cc(C)c4c(c3)Nc3ncnc(N5CCS(=O)(=O)CC5)c3[C@@H](C)O4)CC2)C1` (single isomer, unassigned) [compound 84], the melting point was above 300 °C. Further, the IC50 in data set [1] was above 10 µM. In data set [2] (setting [4]), this compound yielded a Ki of 0.148 µM. In data set [2] (setting [5]), the kinact was 8.33e-05 s⁻¹. Also, in data set [2] (setting [6]), the kinact/KI came to 563 M⁻¹ s⁻¹. In data set [3], this compound gave an IC50 of 0.112 µM.
The compound `C=CC(=O)N1CC(N2CCC(c3cc4c(c(C)n3)O[C@H](C)c3c(ncnc3N3CCS(=O)(=O)CC3)N4)CC2)C1` (single isomer, unassigned) [compound 85] returned a melting point of 240 °C. The IC50 in data set [1] was above 10 µM. Moreover, the kinact/KI in data set [2] (setting [7]) amounted to 725 M⁻¹ s⁻¹. This compound also showed an IC50 in data set [3] of 0.0676 µM.
`C=CC(=O)N1CC(N2CCC(c3cc4c(c(C)n3)O[C@@H](C)c3c(ncnc3N3CCS(=O)(=O)CC3)N4)CC2)C1` (single isomer, unassigned) [compound 86] came in with a melting point of 247 °C. For the same compound, the IC50 in data set [1] was above 10 µM. The Ki in data set [2] (setting [4]) is 0.117 µM. For the same compound, the kinact in data set [2] (setting [5]) amounted to 6.46e-05 s⁻¹. Further, in data set [2] (setting [6]), the kinact/KI was determined as 551 M⁻¹ s⁻¹. Besides, the IC50 in data set [3] was 0.525 µM.
On to `C=CC(=O)N1CCC(N2CC(c3cc(C)c4c(c3)Nc3ncnc(N5CCS(=O)(=O)CC5)c3[C@H](C)O4)C2)CC1` (single isomer, unassigned) [compound 100], for which the melting point came out at 226 °C. In addition, in data set [1], the “CDK7_ A549 mutant hCDK7(pIC50)” value was 5.25 and 5.24 and 5.16; the IC50 is around 6.61 µM.
Consider `C=CC(=O)N1CCC(N2CC(c3cc(C)c4c(c3)Nc3ncnc(N5CCS(=O)(=O)CC5)c3[C@@H](C)O4)C2)CC1` (single isomer, unassigned) [compound 102], for which the melting point was 227 °C. Also, in data set [1], the IC50 was above 10 µM. Also, the IC50 in data set [3] is 0.186 µM and 0.174 µM and 0.151 µM and 0.148 µM.
`CC#CC(=O)N1CCC(N2CC(c3cc(C)c4c(c3)Nc3ncnc(N5CCS(=O)(=O)CC5)c3[C@@H](C)O4)C2)CC1` (single isomer, unassigned) [compound 124] registered a melting point of 292 °C. The IC50 in data set [1] is above 10 µM. The IC50 in data set [3] is 0.251 µM and 0.138 µM.
`CC#CC(=O)N1CCC(N2CC(c3cc(C)c4c(c3)Nc3ncnc(N5CCS(=O)(=O)CC5)c3[C@H](C)O4)C2)CC1` (single isomer, unassigned) [compound 125] yielded a melting point of 203 °C. Further, in data set [1], the “CDK7_ A549 mutant hCDK7(pIC50)” value worked out at 5.26 and the IC50 is 6.76 µM. For the same compound, the IC50 in data set [3] is ~0.0178 µM and ~0.0269 µM.
With `C=CC(=O)N1CC(N2CCC(c3ccc4c(c3)Nc3ncnc(N5CCOCC5)c3CO4)CC2)C1` [compound 1], the melting point came out at 184 °C. Moreover, in data set [1], the IC50 is above 10 µM. In data set [2] (setting [4]), the Ki was 0.389 µM. The Ki in data set [2] (CDK7 (KI(μM)), Table B) is 0.598 µM and 0.167 µM and 0.608 µM and 0.285 µM. Further, the kinact in data set [2] (setting [5]) is 9.1e-05 s⁻¹. In data set [2] (setting [6]), the kinact/KI is 234 M⁻¹ s⁻¹.
`C=CC(=O)N1CCN(C2CN(c3ccc4c(c3)Nc3ncnc(N5CCOCC5)c3CO4)C2)CC1` [compound 4] came in with a melting point of 151 °C. In addition, in data set [1], the IC50 was above 10 µM. This compound also came in with an IC50 in data set [3] above 10 µM.
`C=CC(=O)N1CC(N2CC=C(c3ccc4c(c3)Nc3ncnc(N5CCOCC5)c3CO4)CC2)C1` [compound 33] gave a melting point of 193 °C. In addition, the IC50 in data set [1] is above 10 µM. The IC50 in data set [3] is 2.34 µM.
The matching figures for `C=CC(=O)N1CC[C@H](N2CC(c3cc(C)c4c(c3)Nc3ncnc(N5CCS(=O)(=O)CC5)c3CO4)C2)C1` [compound 90]: 232 °C, around 10 µM and 0.251 µM.
The matching figures for `C=CC(=O)N1CC[C@@H](N2CC(c3cc(C)c4c(c3)Nc3ncnc(N5CCS(=O)(=O)CC5)c3CO4)C2)C1` [compound 92]: 241 °C, above 10 µM and 0.427 µM.
In turn, `C=CC(=O)N1CC(N2CCC(c3cc(C)c4c(c3)Nc3ncnc(N5CCS(=O)(=O)CC5)c3CO4)CC2)C1` [compound 101] returned a melting point of 169 °C. For the same compound, the IC50 in data set [1] was above 10 µM. In data set [2] (20 nM enz.), the “CDK7 (20 nM enz.) (kinact, s^−1)” value was 8.74e-05 s⁻¹ and the “CDK7 (20 nM enz.) (kobs/[I], M^−1*s^−1)” value was 1455 M⁻¹ s⁻¹. Moreover, the Ki in data set [2] (setting [4]) is 0.077 µM and 0.0323 µM. The kinact in data set [2] (setting [5]) stood at 5.87e-05 s⁻¹. Also, the kinact/KI in data set [2] (setting [7]) is 1460 M⁻¹ s⁻¹.
